# Results from patent US20240009191A1, “METHOD AND COMPOSITION FOR THE TREATMENT OF DISEASE” (DIMERIX BIOSCIENCE PTY LTD, priority 2019, published 2024).
# Biological target: T1, AT1R-CXCR2 heteromer (Homo sapiens, UniProt P25025+P30556)
# T1 sequence (P30556 1-359): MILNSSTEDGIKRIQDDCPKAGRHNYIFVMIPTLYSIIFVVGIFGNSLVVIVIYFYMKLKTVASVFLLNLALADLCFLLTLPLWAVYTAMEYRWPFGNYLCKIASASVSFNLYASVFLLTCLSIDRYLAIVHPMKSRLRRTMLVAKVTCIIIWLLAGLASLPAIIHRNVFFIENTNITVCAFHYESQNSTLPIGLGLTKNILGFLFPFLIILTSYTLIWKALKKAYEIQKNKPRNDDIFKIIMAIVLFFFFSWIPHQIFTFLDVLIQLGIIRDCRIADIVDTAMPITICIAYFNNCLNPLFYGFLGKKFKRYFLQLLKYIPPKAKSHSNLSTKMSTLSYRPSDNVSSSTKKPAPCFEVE
# T1 sequence (P25025 1-360): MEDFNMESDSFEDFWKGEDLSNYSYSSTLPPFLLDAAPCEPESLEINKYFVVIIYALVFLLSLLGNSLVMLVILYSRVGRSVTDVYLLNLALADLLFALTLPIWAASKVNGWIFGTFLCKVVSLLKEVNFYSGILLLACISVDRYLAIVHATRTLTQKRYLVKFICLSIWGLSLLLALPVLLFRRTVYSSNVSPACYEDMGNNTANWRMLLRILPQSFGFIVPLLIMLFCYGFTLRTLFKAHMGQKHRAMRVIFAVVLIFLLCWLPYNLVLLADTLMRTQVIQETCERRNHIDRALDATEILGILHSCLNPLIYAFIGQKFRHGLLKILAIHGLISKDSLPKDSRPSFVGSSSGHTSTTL
# Test: BRET trafficking of AT1R/Rluc8 (Venus/Kras, Rab5) with unlabelled CXCR2, pre-treatment with vehicle or antagonists/inverse agonists
# Assay type: cell-based
# Conditions: pre-treatment with vehicle, 100 nM AngII only or with 10 nM CXCL8
# Method: HEK293FT cells were seeded in 6-well plates at a density of approximately 700,000 cells/well and maintained at 37° C., 5% CO2 in Complete Media (DMEM containing 0.3 mg/ml glutamine, 100 IU/ml penicillin and 100 μg/ml streptomycin (Gibco/Thermo Fisher)) supplemented with 10% fetal calf serum (FCS; Bovogen). Transient transfections were carried out 24 h after seeding using FuGene6™ (Promega) according to manufacturer instructions. 24 h post-transfection, cells were washed with PBS, detached using 0.05% trypsin/0.53 mM EDTA, resuspended in HEPES-buffered phenol red free Complete Media containing 5% FCS and added to a poly-L-lysine-coated white 96-well microplate (Greiner Bio-One). 48 h post-transfection, bioluminescence resonance energy transfer (BRET) assays were carried out following pre-incubation of cells with EnduRen™ (Promega) at a final concentration of 30 μM, at 37° C., 5% CO2 for 2 h. BRET measurements were taken at 37° C. using the LUMlstar™ or CLARIOstar™ (BMG Labtech).
# For antagonist/inverse agonist assays, cells were pre-incubated with EnduRen for 1.5 hours, followed by the addition of vehicle or antagonists/inverse agonists (10 μM) for another 30 minutes.
# The BRET signal observed between interacting proteins is normalized by subtracting the background BRET ratio. […] In the following examples, the second calculation will be used and the signal is described as ligand-induced BRET′. Furthermore, for data shown in FIGS. 4 to 20, all data points in a given set are corrected relative to the final data point prior to agonist treatment, which is fixed to zero. In keys on FIGS. 7 to 20, “>” means “followed by after 50 minutes”, with agonists added at time zero on the x-axes.
# Prior to agonist treatment (added at 0 minutes), a baseline BRET signal was recorded for each of the combinations for 20 minutes. Data were calculated as ligand-induced BRET relative to the ‘vehicle followed by vehicle’ (veh>veh) data set.
substance,measurement,setting,value
Angiotensin II [AngII],proximity of AT1R/Rluc8 to Venus/Kras (BRET),"FIG. 19A, 19B",marked reduction
same,proximity of AT1R/Rluc8 to Venus/Rab5 (BRET),"FIG. 20A, 20B",marked increase
